Test results as given in patent US7612107B2, “Treatment and inhibition of disease conditions using flexible heteroarotinoids” (The Board of Regents of the University of Oklahoma, priority 2005, dated 2009).

How the values were obtained:
[1] = tested on: Caki renal cancer xenografts; experiment: Caki renal cancer xenograft tumor model; format: in vivo, mouse
Procedure: (§1) FIG. 12. Various Xenograft tumors stained with CD34 antibodies (brown) to identify endothelium. The B16 mouse melanoma cell line was established as a syngeneic tumor in an immunocompetent mouse model and the human Caki renal cancer and A2780 ovarian xenograft tumors in immunocompromised mice. The treated mice were gavaged with 60 mg/kg/day SHetA2 and the untreated were gavaged with solvent only. The tumors were excised and sections were stained with the anti-CD34 antibody to detect endothelial cells (brown stain).
FIG. 20. Mice harboring Caki renal cancer xenografts were treated with 60 mg/kg/day SHetA2 or PEG400 vehicle for 15 days. After another 15 days of growth, the tumors were removed, fixed, embedded and sections. Sections were stained with PAS to identify glycoproteins and lysosomes. The untreated tumor is on the left and the treated tumor is on the right.
(§2) Survival was the primary endpoint of those studies. […] Tumor growth was the primary endpoint of the renal cancer study.

B16 mouse melanoma = experiment: B16 melanoma syngeneic tumor model; format: in vivo
Procedure: as §1, §2

[2] = tested on: NCI human tumor cell line panel; experiment: SHetA2 cytotoxicity in NCI human tumor cell line panel; format: cell-based
Procedure: The SHetA2 compound was evaluated in the National Cancer Institute (NCI) human tumor cell line panel by the Developmental Therapeutics Program (DTP). The human tumor cell lines were grown in RPMI 1640 medium containing 5% fetal bovine serum and 2 mM L-glutamine. Cells were inoculated into 96 well microtiter plates at densities ranging from 5,000 to 40,000 cells/well depending on the doubling time of individual cell lines and incubated for 24 h prior to addition of SHetA2. After 24 h, two plates of each cell line were fixed in situ with TCA, to represent a measurement of the cell population for each cell line at the time of drug addition (Tz). Drugs were dissolved in dimethyl sulfoxide (DMSO) and diluted in complete medium containing 50 μg/ml gentamicin, prior to addition to the culture wells. […] […] The absorbance was read on an automated plate reader at a wavelength of 515 nm. Using the seven absorbance measurements (time zero, (Tz), control growth, (C), and test growth in the presence of drug at the five concentration levels (Ti)), the GI50 was calculated from [(Ti−Tz)/(C−Tz)]×100=50. […]

OVCAR-3 xenograft tumors = experiment: Histochemical and immunohistochemical evaluation of xenograft tumors (glands, MUC-1, TUNEL); format: in vivo, mouse; settings: 10 mg/kg/day gavage, end of treatment
Procedure: Statistically significant higher levels of glands and MUC-1 expression in the tumors of treated animals in comparison to controls treated with sesame oil are indicated by asterisks (*) and were determined by t-tests. For gland formation, p<0.001 for SHetA2, p=0.097 for SHetA4, p=0.001 for SHet50, and p=0.007 for 4-HPR. For MUC-1 scores, p=0.011 for SHetA2, p=0.050 for SHetA4, p=0.040 for SHet50, and p=0.001 for 4-HPR. The higher levels of TUNEL scores in the tumors of treated animals in comparison to control animals approached significance (t-test, p=0.27 for SHetA2, p=0.48 for SHetA4, p=0.20 for SHet50, and p=0.12 for 4-HPR).
On the last day of treatment, the animals were sacrificed and then the tumors were removed, fixed in neutral buffered formalin and embedded in paraffin. […] MUC-1 expression was detected in tumor sections using a mouse monoclonal antibody to human MUC-1 (Pharmingen, San Diego, Calif.) and the Histostain-Plus AEC Kit (Zymed Laboratories, San Francisco, Calif.) according to manufacturers instructions. […] Tumor sections were scored for number of glands (quantified in one H&E stained sections and 3 MUC-1-stained sections) and MUC-1 and TUNEL staining (based on staining intensity and percent positive cells). […]

For `CC1(C)CC(C)(C)c2cc(NC(=S)Nc3ccc([N+](=O)[O-])cc3)ccc2S1` [SHetA2], the “PAS stain of renal xenograft tumors” value ([1]; 60 mg/kg/day for 15 days, treated vs untreated tumors) was “increase in general glycoprotein expression and lysosomal staining”, the Tumor growth ([1]; renal cancer model) was “decreased tumor growth” and the “Development of blood vessels inside tumors (anti-CD34 staining)” value ([1]; renal, oral 60 mg/kg/day) was “inhibited the development of blood vessels”. The Survival (B16 mouse melanoma) was “improved survival”, the percent growth levels ([2]; 10 and 100 μM SHetA2, majority of cell lines) was “negative percent growth levels” and the GI50 values ([2]; 55 cell lines, 9 cancer types, 48 h) was “micromolar range”. For the same molecule, the “MUC-1 expression in xenograft tumors” value (OVCAR-3 xenograft tumors; vs control) was “increase staining” and the “Gland formation in xenograft tumors” value (OVCAR-3 xenograft tumors; vs untreated control) was “greatest degree of gland induction”.
